For series [1], the system named is hair cells and supporting cells in cochlear explants. Kind of series: mScarlet positive hair cells and supporting cells in cochlear explants infected with AAVanc80, with and without TMP. The series is classed as cell-based, mouse. As to conditions: with and without 10 uM TMP, FIG. 10. As to the method:
FIG. 9A is an image showing mScarlet positive cells in a P1-P3 mouse cochlea explant transfected with AAVanc80 vector at various MOIs. 10 μM TMP was added at a later time point.
FIG. 10 is an image showing mScarlet positive hair cells and supporting cells in a cochlear explants infected with AAVanc80 with and without 10 uM TMP that was added at a later time point.
(§1) HEK293FT cells were transfected with mScarlet and mScarlet-DD vectors (FIGS. 7A-7B). The data in FIGS. 8A and 8B show the functionality and reversibility of the destabilizing domain (DD) using fluorescence microscopy and flow cytometry, respectively.

The test system of series [2] is HEK293FT cells. Briefly: mScarlet positive HEK293FT cells with AAVanc80 vector at various MOIs, with or without TMP. As to conditions: 10 μM TMP added later, FIGS. 9A and 9B. Type of series: cell-based. As to the method: FIG. 9B is an image showing mScarlet positive HEK293FT cells transfected with AAVanc80 vector at various MOIs. 10 μM TMP was added at a later time point.
as §1

In series [3] the test system is HEK293FT cells. Briefly: Destabilizing domain (DD) functionality and reversibility, TMP dose response by fluorescence microscopy. The settings on record: TMP 0.1, 1, 10, 20 and 100 μM, FIG. 8A. Type of series: cell-based. As to the method:
FIG. 8A is a dose response curve showing the functionality and reversibility of the destabilizing domain (DD) using fluorescence microscopy. Serial dilutions of TMP (0.1 μM, 1 μM, 10 μM, 20 μM and 100 μM) were tested in the mScarlet and mScarlet-DD transfected HEK293FT cells.
as §1

Another series relates to ATOH1, POU4F3, and GFI1. Briefly: Relative quantification of ATOH1, POU4F3 and GFI1 RNA in HEK293FT cells transfected with individual plasmids. Type of series: cell-based. The settings on record: FIG. 6A. The text has this:
FIG. 6A is a bar graph showing the relative quantification of ATOH1, POU4F3, and GFI1 (APG) RN in HEK293FT cells transfected with the individual plasmids of FIGS. 4A-C.
The data in FIGS. 6A and 6B show overexpression of ATOH1, POU4F3 and GFI-1 in HEK293FT cells that were transfected with the vectors of FIGS. 4A-4D.

With “mScarlet-DD: nucleic acid vector with ITR, CMV promoter, mScarlet, destabilizing domain (DD) and bGHpA sequences”, in series [1], the “mScarlet expression in cochlear explants” value was “only seen in the presence of TMP”. Besides, the mScarlet expression result in the series on HEK293FT cells [2] is reported as “primarily seen in mScarlet-DD transfected cells in the presence of TMP”. Moreover, in the series on HEK293FT cells [3], the “percentage of mScarlet positive cells” value was “increased proportionately with increasing concentration of TMP”.

As to “POU4F3: nucleic acid vector with CMV promoter, human POU4F3 gene, 3×Flag, T2A, mScarlet and destabilizing domain”, the “ATOH1 and GFI-1 mRNA levels on overexpression of POU4F3” value in the series on ATOH1, POU4F3, and GFI1 was “increase in ATOH1 and GFI-1 mRNA levels”.

B1: mScarlet: nucleic acid vector with ITR, CMV promoter, mScarlet and bGHpA sequences (nucleic acid)
DNA: CCTGCAGGCAGCTGCGCGCTCGCTCGCTCACTGAGGCCGCCCGGGCGTCGGGCGACCTTTGGTCGCCCGGCCTCAGTGAGCGAGCGAGCGCGCAGAGAGGGAGTGGCCAACTCCATCACTAGGGGTTCCTGTGATGCGGTTTTGGCAGTACATCAATGGGCGTGGATAGCGGTTTGACTCACGGGGATTTCCAAGTCTCCACCCCATTGACGTCAATGGGAGTTTGTTTTGGCACCAAAATCAACGGGACTTTCCAAAATGTCGTAACAACTCCGCCCCATTGACGCAAATGGGCGGTAGGCGTGTACGGTGGGAGGTCTATATAAGCAGAGCTCGTTTAGTGAACCGTCAGATCGCCTGGAGACGCGTGAGCAAGGGCGAGGCAGTGATCAAGGAGTTCATGCGGTTCAAGGTGCACATGGAGGGCTCCATGAACGGCCACGAGTTCGAGATCGAGGGCGAGGGCGAGGGCCGCCCCTACGAGGGCACCCAGACCGCCAAGCTGAAGGTGACCAAGGGTGGCCCCCTGCCCTTCTCCTGGGACATCCTGTCCCCTCAGTTCATGTACGGCTCCAGGGCCTTCATCAAGCACCCCGCCGACATCCCCGACTACTATAAGCAGTCCTTCCCCGAGGGCTTCAAGTGGGAGCGCGTGATGAACTTCGAGGACGGCGGCGCCGTGACCGTGACCCAGGACACCTCCCTGGAGGACGGCACCCTGATCTACAAGGTGAAGCTCCGCGGCACCAACTTCCCTCCTGACGGCCCCGTAATGCAGAAGAAGACAATGGGCTGGGAAGCGTCCACCGAGCGGTTGTACCCCGAGGACGGCGTGCTGAAGGGCGACATTAAGATGGCCCTGCGCCTGAAGGACGGCGGCCGCTACCTGGCGGACTTCAAGACCACCTACAAGGCCAAGAAGCCCGTGCAGATGCCCGGCGCCTACAACGTCGACCGCAAGTTGGACATCACCTCCCACAACGAGGACTACACCGTGGTGGAACAGTACGAACGCTCCGAGGGCCGCCACTCCACCGGCGGCATGGACGAGCTGTACAAGTAAGCTGATCAGCCTCGACTGTGCCTTCTAGTTGCCAGCCATCTGTTGTTTGCCCCTCCCCCGTGCCTTCCTTGACCCTGGAAGGTGCCACTCCCACTGTCCTTTCCTAATAAAATGAGGAAATTGCATCGCATTGTCTGAGTAGGTGTCATTCTATTCTGGGGGGTGGGGTGGGGCAGGACAGCAAGGGGGAGGATTGGGAAGACAATAGCAGGCATGCTGGGGATGCGGTGGGCTCTATGGAGGAACCCCTAGTGATGGAGTTGGCCACTCCCTCTCTGCGCGCTCGCTCGCTCACTGAGGCCGGGCGACCAAAGGTCGCCCGACGCCCGGGCTTTGCCCGGGCGGCCTCAGTGAGCGAGCGAGCGCGCAGCTGCCTGCAGG
modifications: pITR-CMV-mScarlet-bGHpA
Consider B1, for which, in series [1], the “mScarlet expression in cochlear explants” value is “seen in hair cells and supporting cells”. Also, the mScarlet expression result with HEK293FT cells [2] was “seen in all HEK293FT cells”. Moreover, the “percentage of mScarlet positive cells” value with HEK293FT cells [3] is recorded as “remained constant regardless of TMP concentration”.
